The record followed here is patent US20100056524A1, “Compound” (priority 2008, published 2010).

Counter-ions that a name gives are not always drawn. Like-named read-outs stand apart in the source and are kept apart here.

The target of assay [1] is T1, NEK6 (Homo sapiens, UniProt Q9HC98).
T1 construct: All protein kinases were of human origin and encoded full length proteins, unless indicated otherwise; made in house
Nature of the assay: NEK6 protein kinase assay. The class given is biochemical. The conditions noted are these: for remaining activity at 10 µM: 10 μM compound; for residual kinase activity NEK6: 1 μm compound; for remaining activity at 1 µM: 1 μM compound. An excerpt: (§1) All protein kinases were of human origin and encoded full length proteins, unless indicated otherwise. They were either expressed as glutathione S-transferase (GST) fusion proteins in Escherichia Coli or as hexahistidine (His6)-tagged proteins in insect Sf21 cells. GST fusion proteins were purified by affinity chromatography on glutathione-Sepharose, and His6-tagged proteins on nickel/nitriloacetate-agarose. The procedures for expressing some of the protein kinases used herein have been detailed previously.^8,9 The following sections outline the DNA vectors synthesised and the procedures used to express and purifying protein kinases that have not been reported previously.
(§2) All assays (25.5 μl) were carried out at room temperature (21° C.) and were linear with respect to time and enzyme concentration under the conditions used. Assays were performed for 30 min using Multidrop Micro reagent dispensers (Thermo Electron Corporation, Waltham, Mass. 02454, USA) in a 96-well format. The concentration of magnesium acetate in the assays was 10 mM and the [γ-33P] ATP (800 cpm/pmol) was used at 5, 20 or 50 μM as indicated, in order to be at or below the Km for ATP for each enzyme. Protein kinases assayed at 5 μM ATP were: —ERK1, ERK8, PKBα, MARK3, Aurora C. Protein kinases assayed at 20 μM ATP were: —JNK1, PDK1, CHK1, CHK2, CDK2 and Aurora B. Protein kinases assayed at 50 μM ATP were: —MNK2, IKKepsilon and TBK1.
(§3) The assays were initiated with MgATP, stopped by addition of 5 μl of 0.5 M orthophosphoric acid and spotted on to P81 filterplates using a unifilter harvester (PerkinElmer, Boston, Mass. 02118, USA). The IC50 values of inhibitors were determined after carrying out assays at 10 different concentrations of each compound.
(§4) Unless stated otherwise, enzymes were diluted in 50 mM Tris/HCl pH 7.5, 0.1 mM EGTA, 1 mg/ml BSA, 0.1% (v/v) 2-mercaptoethanol and assayed in 50 mM Tris/HCl pH 7.5, 0.1 mM EGTA, 0.1% (v/v) 2-mercaptoethanol.

Assay [2] has as its target T2, JNK1 (Homo sapiens, UniProt P45983).
T2 construct: All protein kinases were of human origin and encoded full length proteins, unless indicated otherwise; made in house
The experiment in a line: JNK1 protein kinase assay. The class given is biochemical. The conditions noted are these: for remaining activity at 10 µM: 10 μM compound; for residual kinase activity JNK1: 1 μm compound; for remaining activity at 1 µM: 1 μM compound.
Text: as §1
In order to produce activated forms of Aurora B and Aurora C, insect Sf21 cells were incubated for 1 h with the protein phosphatase inhibitor okadaic acid (50 nM). JNK isoforms were activated with MKK4 and MKK7, MNK2 with p38α MAPkinase; PKBα, PKBβ, with PDK1, and ERK1 with MKK1. To activate CDK2, bacterial pellets expressing cyclin A2 and CDK2 were mixed together, lyse and purified on glutathione Sepharose. The GST-tags were removed by cleavage with PreScission protease and the CDK2-cyclin A2 complex purified by chromatography on SP-Sepharose. It was then activated with CAK1/CDK7 followed by chromatography on nickel-nitrilotriacetate agarose to remove CAK1/CDK7, which binds to this column by virtue of its C-terminal His6 tag. All the other protein kinases were active as expressed.
as §2, §3, §4

In assay [3] the target is T3, RSK1 (Homo sapiens, UniProt Q15418).
T3 construct: All protein kinases were of human origin and encoded full length proteins, unless indicated otherwise; made in house
T3 sequence (Q15418 whole entry): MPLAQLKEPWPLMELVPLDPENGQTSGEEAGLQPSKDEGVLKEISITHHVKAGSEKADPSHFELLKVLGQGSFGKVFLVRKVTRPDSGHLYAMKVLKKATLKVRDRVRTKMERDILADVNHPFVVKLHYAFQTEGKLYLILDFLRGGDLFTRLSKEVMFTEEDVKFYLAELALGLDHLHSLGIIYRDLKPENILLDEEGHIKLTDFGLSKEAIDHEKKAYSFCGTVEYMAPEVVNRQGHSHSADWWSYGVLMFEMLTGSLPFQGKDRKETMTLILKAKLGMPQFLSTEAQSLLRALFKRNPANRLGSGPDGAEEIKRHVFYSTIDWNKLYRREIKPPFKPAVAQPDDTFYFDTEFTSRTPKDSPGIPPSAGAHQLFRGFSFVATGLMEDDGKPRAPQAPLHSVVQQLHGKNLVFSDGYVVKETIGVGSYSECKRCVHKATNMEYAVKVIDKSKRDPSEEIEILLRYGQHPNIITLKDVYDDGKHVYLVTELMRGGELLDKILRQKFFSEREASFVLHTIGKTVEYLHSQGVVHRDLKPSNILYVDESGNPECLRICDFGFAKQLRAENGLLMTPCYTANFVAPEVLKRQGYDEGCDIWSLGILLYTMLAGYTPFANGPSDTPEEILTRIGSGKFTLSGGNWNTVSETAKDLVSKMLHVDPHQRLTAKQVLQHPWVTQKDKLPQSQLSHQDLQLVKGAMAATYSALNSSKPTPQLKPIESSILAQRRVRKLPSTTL
The experiment in a line: RSK1 protein kinase assay. Format: biochemical. The conditions noted are these: for remaining activity at 10 µM: 10 μM compound; for residual kinase activity RSK1: 1 μm compound; for remaining activity at 1 µM: 1 μM compound.
Text: as §1, §2, §3, §4

Assay [4] deals with T4, ERK2 (Homo sapiens, UniProt P28482).
T4 construct: All protein kinases were of human origin and encoded full length proteins, unless indicated otherwise; made in house
T4 sequence (P28482 2-360): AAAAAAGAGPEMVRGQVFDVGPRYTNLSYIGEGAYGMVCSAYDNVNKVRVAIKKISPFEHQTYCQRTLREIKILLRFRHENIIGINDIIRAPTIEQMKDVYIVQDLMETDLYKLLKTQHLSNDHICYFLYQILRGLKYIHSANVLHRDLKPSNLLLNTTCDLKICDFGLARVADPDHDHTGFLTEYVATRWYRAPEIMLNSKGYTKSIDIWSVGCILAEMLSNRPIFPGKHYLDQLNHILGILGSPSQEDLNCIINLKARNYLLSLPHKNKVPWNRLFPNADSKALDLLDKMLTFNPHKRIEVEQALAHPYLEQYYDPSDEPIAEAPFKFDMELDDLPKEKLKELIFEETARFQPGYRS
Nature of the assay: ERK2 protein kinase assay. The class given is biochemical. The conditions noted are these: for remaining activity at 10 µM: 10 μM compound; for residual kinase activity ERK2: 1 μm compound; for remaining activity at 1 µM: 1 μM compound.
Text: as §1, §2, §3, §4

Assay [5] concerns SmMLCK. The experiment in a line: SmMLCK protein kinase assay. The conditions noted are these: for residual kinase activity: SmMLCK. Format: biochemical, human.
Text: as §1, §2, §3, §4

The target in assay [6] is T5, PRK2 (Homo sapiens, UniProt Q16513).
T5 construct: All protein kinases were of human origin and encoded full length proteins, unless indicated otherwise; made in house
T5 sequence (Q16513 501-984 limits assumed): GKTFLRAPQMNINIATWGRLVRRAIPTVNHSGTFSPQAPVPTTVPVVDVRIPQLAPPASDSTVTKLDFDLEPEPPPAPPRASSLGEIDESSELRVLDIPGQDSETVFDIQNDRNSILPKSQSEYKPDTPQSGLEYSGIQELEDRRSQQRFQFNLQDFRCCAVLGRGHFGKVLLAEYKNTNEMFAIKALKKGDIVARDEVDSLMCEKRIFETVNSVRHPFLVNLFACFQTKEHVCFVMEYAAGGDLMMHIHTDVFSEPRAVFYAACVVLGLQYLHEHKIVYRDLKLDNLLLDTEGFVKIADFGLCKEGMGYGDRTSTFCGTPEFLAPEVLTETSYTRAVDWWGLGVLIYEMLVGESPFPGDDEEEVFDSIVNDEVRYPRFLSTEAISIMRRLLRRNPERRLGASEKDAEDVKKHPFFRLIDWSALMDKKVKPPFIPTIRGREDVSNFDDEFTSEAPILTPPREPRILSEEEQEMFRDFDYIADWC
Nature of the assay: PRK2 protein kinase assay. The class given is biochemical. The conditions noted are these: for remaining activity at 10 µM: 10 μM compound; for residual kinase activity PRK2: 1 μm compound; for remaining activity at 1 µM: 1 μM compound.
Text: as §1, §2, §3, §4

For assay [7], the target named is T6, DYRK2 (Homo sapiens, UniProt Q92630).
T6 construct: All protein kinases were of human origin and encoded full length proteins, unless indicated otherwise; made in house
T6 sequence (Q92630 1-601): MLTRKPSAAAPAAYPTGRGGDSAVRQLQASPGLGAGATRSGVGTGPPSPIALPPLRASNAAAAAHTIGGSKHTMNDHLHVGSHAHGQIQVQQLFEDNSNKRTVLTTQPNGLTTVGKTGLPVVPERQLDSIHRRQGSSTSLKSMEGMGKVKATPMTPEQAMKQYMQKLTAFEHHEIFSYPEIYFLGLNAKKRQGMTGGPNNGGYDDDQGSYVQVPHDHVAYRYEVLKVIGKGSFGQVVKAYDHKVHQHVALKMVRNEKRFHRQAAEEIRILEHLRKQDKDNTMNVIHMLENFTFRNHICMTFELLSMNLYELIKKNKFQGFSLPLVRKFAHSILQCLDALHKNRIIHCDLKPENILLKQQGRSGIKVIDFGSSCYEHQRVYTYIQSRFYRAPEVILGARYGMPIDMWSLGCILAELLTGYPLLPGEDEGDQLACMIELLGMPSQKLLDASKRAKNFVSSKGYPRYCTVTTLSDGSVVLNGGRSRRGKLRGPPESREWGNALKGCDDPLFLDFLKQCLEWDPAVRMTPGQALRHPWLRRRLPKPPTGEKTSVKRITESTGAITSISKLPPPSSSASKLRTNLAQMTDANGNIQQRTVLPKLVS
Nature of the assay: DYRK2 protein kinase assay. The class given is biochemical. The conditions noted are these: for remaining activity at 10 µM: 10 μM compound; for residual kinase activity DYRK2: 1 μm compound; for remaining activity at 1 µM: 1 μM compound.
Text: as §1, §2, §3, §4

Setting [8] is: read-out: residual kinase activity NEK6.
Where [9] appears, read: read-out: residual kinase activity JNK1.
The mark [10] stands for this setting: read-out: residual kinase activity RSK1.
[11] abbreviates: read-out: residual kinase activity ERK2.
The mark [12] stands for this setting: read-out: residual kinase activity PRK2.
[13] abbreviates: read-out: residual kinase activity DYRK2.
Setting [14] is: NEK6, read-out: residual kinase activity.
The mark [15] stands for this setting: JNK1, 20 μM ATP, read-out: residual kinase activity.
Setting [16] is: RSK1, read-out: residual kinase activity.
The mark [17] stands for this setting: ERK2, read-out: residual kinase activity.
[18] abbreviates: PRK2, read-out: residual kinase activity.
Where [19] appears, read: DYRK2, read-out: residual kinase activity.

T2 sequence (P45983 1-384 isoform P45983-2): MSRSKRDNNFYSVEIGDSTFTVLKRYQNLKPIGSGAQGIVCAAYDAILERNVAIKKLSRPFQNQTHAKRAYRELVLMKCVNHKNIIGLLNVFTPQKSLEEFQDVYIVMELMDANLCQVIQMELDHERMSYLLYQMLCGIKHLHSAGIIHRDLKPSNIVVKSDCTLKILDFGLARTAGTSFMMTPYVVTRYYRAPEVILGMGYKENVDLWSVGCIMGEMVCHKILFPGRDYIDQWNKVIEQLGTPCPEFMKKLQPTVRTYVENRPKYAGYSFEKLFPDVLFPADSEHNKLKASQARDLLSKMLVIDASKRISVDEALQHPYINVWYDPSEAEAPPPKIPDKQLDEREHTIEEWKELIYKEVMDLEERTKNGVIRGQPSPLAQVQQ
T1 sequence (Q9HC98 whole entry): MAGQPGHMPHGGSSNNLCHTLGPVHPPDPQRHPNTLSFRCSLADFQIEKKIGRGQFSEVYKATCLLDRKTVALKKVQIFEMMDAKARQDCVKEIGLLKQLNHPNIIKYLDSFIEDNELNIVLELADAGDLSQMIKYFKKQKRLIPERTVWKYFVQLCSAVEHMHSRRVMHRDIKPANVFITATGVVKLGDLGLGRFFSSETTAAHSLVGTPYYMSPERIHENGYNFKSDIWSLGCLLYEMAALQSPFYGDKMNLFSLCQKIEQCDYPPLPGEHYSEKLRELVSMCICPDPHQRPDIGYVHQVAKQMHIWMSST

Turning to `O=C(NCCCNc1nc(Nc2cccc(F)c2)ncc1Br)C1CCC1` [Compound A, cyclobutanecarboxylic acid {3-[5-bromo-2-(3-fluoro-phenylamino)-pyrimidin-4-ylamino]-propyl}-amide, reference compound], the remaining activity at 10 µM came out at 93% in assay [1] (setting [8]); 9% in assay [2] (setting [9]); 9% in assay [3] (setting [10]); 10% in assay [4] (setting [11]); 4% in assay [6] (setting [12]); 6% in assay [7] (setting [13]). Besides, in assay [1], the “residual kinase activity NEK6” value is listed as 88%. The “residual kinase activity JNK1” value in assay [2] came out at 46%. The “residual kinase activity RSK1” value in assay [3] worked out at 27%. The “residual kinase activity ERK2” value in assay [4] is on record as 49%. The results for the “residual kinase activity SmMLCK” value in assay [5] (10 μM compound) and in assay [5] (1 μm compound) were 59% and 101%, respectively. For the same compound, the “residual kinase activity PRK2” value in assay [6] amounted to 24%. The “residual kinase activity DYRK2” value in assay [7] was 36%.
Take `O=C(NCCCNc1nc(Nc2cccc(N3CCCC3=O)c2)ncc1C1CC1)c1cccs1` [Example 47, Thiophene-2-carboxylic acid (3-{5-cyclopropyl-2-[3-(2-oxo-pyrrolidin-1-yl)-phenylamino]-pyrimidin-4-ylamino}-propyl)-amide. Hydrochloride salt]: the remaining activity at 1 µM in assay [1] (setting [14]) is 65%; in assay [2] (setting [15]), 92%; in assay [3] (setting [16]) it was 45%; in assay [4] (setting [17]), 90%; in assay [6] (setting [18]), 76%; in assay [7] (setting [19]) it was 81%. For the same compound, the remaining activity at 10 µM in assay [1] (setting [14]) was found to be 65%; in assay [2] (setting [15]) it was 86%; in assay [3] (setting [16]), 10%; in assay [4] (setting [17]), 66%; in assay [6] (setting [18]), 68%; in assay [7] (setting [19]), 63%. Moreover, the figures for the residual kinase activity in assay [5] (1 μM compound) and in assay [5] (10 μM compound) were 102% and 81%, respectively.
On to `O=C(NCCCNc1nc(Nc2cccnc2)ncc1C1CC1)c1cccs1` [Example 50, Thiophene-2-carboxylic acid {3-[5-cyclopropyl-2-(pyridin-3-ylamino)-pyrimidin-4-ylamino]-propyl}-amide], for which the remaining activity at 1 µM was 107% in assay [1] (setting [14]); 94% in assay [2] (setting [15]); 49% in assay [3] (setting [16]); 106% in assay [4] (setting [17]); 68% in assay [6] (setting [18]); 76% in assay [7] (setting [19]). Besides, the remaining activity at 10 µM in assay [1] (setting [14]) turned out to be 103%; in assay [2] (setting [15]), 87%; in assay [3] (setting [16]) it was 20%; in assay [4] (setting [17]), 62%; in assay [6] (setting [18]) it was 58%; in assay [7] (setting [19]) it was 38%. The residual kinase activity is on record as 88% in assay [5] (1 μM compound) and 75% in assay [5] (10 μM compound).
For the compound `O=C(NCCCNc1nc(Nc2cccc(F)c2)ncc1C1CC1)C1CCC1` [Example 23, Cyclobutanecarboxylic acid {3-[5-cyclopropyl-2-(3-fluoro-phenylamino)-pyrimidin-4-ylamino]-propyl}-amide], the remaining activity at 10 µM was 83% in assay [1] (setting [8]); 83% in assay [1] (setting [14]); 73% in assay [2] (setting [9]); 73% in assay [2] (setting [15]); 24% in assay [3] (setting [10]); 24% in assay [3] (setting [16]). In addition, the remaining activity at 10 µM in assay [4] (setting [11]) was found to be 108%; in assay [4] (setting [17]), 108%; in assay [6] (setting [12]), 60%; in assay [6] (setting [18]) it was 60%; in assay [7] (setting [13]) it was 50%; in assay [7] (setting [19]) it was 50%. For the same compound, in assay [1], the “residual kinase activity NEK6” value turned out to be 88%. For the same compound, the remaining activity at 1 µM in assay [1] (setting [14]) was found to be 88%; in assay [2] (setting [15]), 91%; in assay [3] (setting [16]), 47%; in assay [4] (setting [17]) it was 107%; in assay [6] (setting [18]) it was 67%; in assay [7] (setting [19]), 67%. Also, in assay [2], the “residual kinase activity JNK1” value amounted to 91%. Further, the “residual kinase activity RSK1” value in assay [3] stood at 47%. Also, the “residual kinase activity ERK2” value in assay [4] is on record as 107%. The “residual kinase activity SmMLCK” value in assay [5] (10 μM compound) was 74%; in assay [5] (1 μm compound), 72%. The residual kinase activity in assay [5] (1 μM compound) came out at 72%; in assay [5] (10 μM compound) it was 74%. In assay [6], the “residual kinase activity PRK2” value is 67%. Further, the “residual kinase activity DYRK2” value in assay [7] is 67%.
